Experimental findings from US6784191B2, “Benzamidine derivatives” (Ajinomoto Co., Inc., priority 1999, dated 2004) are described below.

The target of test [1] is T1, activated human blood coagulation factor X (Homo sapiens, UniProt P00742).
T1 construct: purchased Enzyme Research Co
In words: Determination of activity of inhibiting the activated blood-coagulation factor X (chromogenic substrate, initial rate). As to conditions: negative logarithm of concentration inhibiting 50% of initial rate, tris hydrochloride buffer pH 8.4, room temperature; for IC50: read-out: Activity of inhibiting activated blood coagulation factor X (pIC50) (converted). Type of test: biochemical. Here is the method:
Determination of Activity of Inhibiting the Activated Blood-coagulation Factor X
130 μl of 100 mM tris hydrochloride buffer adjusted to pH 8.4 was added to 10 μl of an aqueous solution of a compound to be tested. Then 10 μl of a 0.5 unit/ml solution of activated human blood coagulation factor X (a product of Enzyme Research Co.) in tris hydrochloride buffer of pH 8.4 was added to the resultant mixture. After the incubation at room temperature for 10 minutes, 50 μl of a solution of N-benzoyl-L-isoleucine-L-glutamine-glycine-L-arginine-P-nitroanilide hydrochloride (a product of Peptide Institute Inc.) adjusted to 0.8 mM with tris hydrochloride (pH 8.4) was added thereto. The absorbance was determined and then the initial reaction rate was determined. A control was prepared in the same manner as that described above except that the solution of the compound to be tested was replaced with 10 μl of tris hydrochloride buffer adjusted to pH 8.4. The absorbance was determined with MICROPLATE READER Model 3550-UV (a product of BIO RAD) at a wave length of 405 nm at intervals of 15 seconds for 16 minutes.

The next test deals with T2, human thrombin (Homo sapiens, UniProt P00734).
T2 construct: human thrombin (a product of SIGMA Co.); purchased SIGMA Co
In words: Determination of thrombin-inhibiting activity (S-2238 chromogenic substrate, initial rate). Type of test: biochemical. The note with it: negative logarithm of concentration inhibiting 50% of initial rate, tris hydrochloride buffer pH 8.4, room temperature; for IC50: read-out: Thrombin-inhibiting activity (pIC50) (converted). Here is the method:
Determination of Thrombin-Inhibiting Activity
130 μl of 100 mM tris hydrochloride buffer adjusted to pH 8.4 was added to 10 μl of an aqueous solution of a test compound. Then 10 μl of a solution of human thrombin (a product of SIGMA Co.) adjusted to 2 units/ml with tris hydrochloride buffer of pH 8.4 was added to the resultant mixture. After the incubation at room temperature for 10 minutes, 50 μl of a solution of D-phenylalanine-L-pipecolyl-L-arginine-P-nitroanilide dihydrochloride (S-2238; a product of Daiichi Kagaku Yakuhin Co.) adjusted to 0.4 mM with tris hydrochloride buffer of pH 8.4 was added thereto. The absorbance was determined and then the initial reaction rate was determined. A control was prepared in the same manner as that described above except that the solution of the compound to be tested was replaced with 10 μl of tris hydrochloride buffer adjusted to pH 8.4. The absorbance was determined with MICROPLATE READER Model 3550-UV (a product of […]) at a wave length of 405 nm at intervals of 15 seconds for 16 minutes.

The test system of test [2] is blood plasma (prothrombin time). In words: Determination of blood anticoagulating activity by prothrombin time (PT) method. Format: biochemical, human. The note with it: blood plasma from healthy people, citrate; Sysmex PT II rabbit brain thromboplastin, 37° C. Here is the method: Determination of Blood Anticoagulating Activity
The blood anticoagulating activity was determined by a prothrombin time (PT) determination method. The PT was determined as follows: The blood was taken from healthy people. 3.8% aqueous trisodium citrate solution was added to the blood in a volume ratio of 1:10. The blood plasma was separated by the centrifugation. 5 μl of DMSO solution containing a test compound was added to 45 μl of the blood plasma. After the incubation at room temperature for 2 minutes, a test tube containing the blood plasma solution was placed in Sysmex CA-3000 fully automatic blood coagulation determination device (a product of Toa Medical Electronics Co., Ltd.), and incubated at 37° C. for 3 minutes. 100 μl of Sysmex PT II (rabbit brain tissue thromboplastin, 13.2 mM calcium chloride; a product of Toa Medical Electronics Co., Ltd.) was fed into the test tube. PT was automatically determined with the device. A sample containing 5 μl of DMSO in place of the solution of the test compound was used as the control. The negative logarithm (pPT2) of the concentration of the test compound which elongated PT of the control to the twice as long was determined, and employed as the index of the blood anticoagulating activity.

T1 sequence (P00742 235-488 limits assumed): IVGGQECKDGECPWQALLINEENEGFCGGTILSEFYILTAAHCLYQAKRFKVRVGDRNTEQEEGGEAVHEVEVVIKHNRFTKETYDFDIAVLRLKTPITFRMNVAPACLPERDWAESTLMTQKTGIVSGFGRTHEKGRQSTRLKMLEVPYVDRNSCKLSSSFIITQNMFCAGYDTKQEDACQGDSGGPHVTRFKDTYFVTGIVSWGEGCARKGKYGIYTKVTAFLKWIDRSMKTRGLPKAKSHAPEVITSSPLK
T1 sequence (P00742 41-179 partner limits assumed): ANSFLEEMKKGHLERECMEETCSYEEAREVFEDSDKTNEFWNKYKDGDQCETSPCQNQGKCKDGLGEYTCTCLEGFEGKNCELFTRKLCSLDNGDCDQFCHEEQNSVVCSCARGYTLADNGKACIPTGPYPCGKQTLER

For `N=C(N)c1ccc(CCP(=O)(O)O)c(OC[C@H](CCC(=O)O)NC(=O)C2CCN(c3ccncc3)CC2)c1.O=C(O)C(F)(F)F.O=C(O)C(F)(F)F` [Compd. of Ex. 4, (4S)-5-(5-amidino-2-(2-phosphorylethyl)phenoxy)-4-((1-(1-pyridine-4-yl)piperidine-4-carbonyl)-amino)pentanoic acid bistrifluoroacetate], the “Activity of inhibiting activated blood coagulation factor X (pIC50)” value in test [1] is 8.7. Also, the “Thrombin-inhibiting activity (pIC50)” value on human thrombin is listed as less than 4.0.

Take `CC(=N)N1CCC(Oc2ccc(C(=O)NCCOc3cc(C(=N)N)ccc3CCP(=O)(O)O)cc2)CC1` [Compd. of Ex. 2]: the IC50 in test [1] was 0.00251 µM; on human thrombin, more than 100 µM.

`N=C(N)c1ccc(CCP(=O)(O)O)c(OCCNC(=O)c2ccc(C(=O)N3CCCC3)cc2)c1` [Compd. of Ex. 3, [2-(4-Amidino-2-[2-[4-(1-pyrrolidinecarbamoyl)benzoylamino]ethoxy]phenyl)ethyl]phosphoric acid mono-trifluoroacetate]: the IC50 was 0.00251 µM in test [1] and 39.8 µM at human thrombin.

Consider `N/C(=N/O)c1ccc(CCP(=O)(O)O)c(OCCNC(=O)c2ccc(C(=O)N3CCCC3)cc2)c1` [Compd. of Ex. 6, [2-(4-Hydroxylamidino-2-[2-[4-(1-pyrrolidinecarbamoyl)benzoylamino]ethoxy]phenyl)ethyl]phosphoric acid monotrifluoroacetate], for which the values for the IC50 (in test [1]; on human thrombin) were 0.0794 µM and more than 100 µM, respectively.

For `N=C(N)c1ccc(CCP(=O)(O)O)c(OCCNC(=O)C2CCN(c3ccncc3)CC2)c1` [Compd. of Ex. 1, [2-(4-Amidino-2-[2-[(1-(1-pyridine-4-yl)piperidine-4-carbonyl)amino]ethoxy]phenyl)ethyl]phosphoric acid bistrifluoroacetate], in test [1], the IC50 is 0.00316 µM. In test [2], the “pPT2 (negative logarithm of the concentration which elongated PT of the control to twice as long)” value was determined as 6.8. Further, at human thrombin, the “Thrombin-inhibiting activity (pIC50)” value is on record as less than 3.5 and the IC50 is more than 316 µM.
